Results from PubChem BioAssay AID608 (Sanford-Burnham Center for Chemical Genomics, 2007).
Values joined by “and” are separate entries in the source; they are usually repeats but may differ in a detail not shown here. Equal entries are not always repeated. Active and inactive are the calls of the source. The rule behind the calls is not given here.

Biological target: Peptidyl-prolyl cis-trans isomerase FKBP1A (Homo sapiens) (UniProt P62942)
Assay: small-molecule binding to FKBP12 – biophysical, NMR detection (AID 608)
Details: purified FKBP12

Peptidyl-prolyl cis-trans isomerase FKBP1A (Homo sapiens), sequence (P62942 whole entry, looked up): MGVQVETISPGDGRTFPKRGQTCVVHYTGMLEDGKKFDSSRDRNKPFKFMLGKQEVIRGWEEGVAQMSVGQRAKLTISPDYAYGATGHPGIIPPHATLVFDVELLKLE

Row | Structure (SMILES) | Kd
1 | c1ccc(-c2csc3ncn4nnnc4c23)cc1 | > 4 mM (inactive)
2 | CC(=O)Nc1ccc(S(=O)(=O)N(C)C)cc1 | > 4 mM (inactive)
3 | CCC(=O)NC(=S)Nc1ccc(N2CCOCC2)cc1 | > 4 mM (inactive)
4 | Cc1c(C(=O)O)cnn1-c1ccccc1 | > 4 mM (inactive)
5 | CC(C)CCCC(C)C1CCC2C3C[C@@H](O)[C@@]4(O)C[C@@H](O)CC[C@]4(C)C3CC[C@]12C (stereo partly drawn) | > 4 mM (inactive)
6 | c1nnc2c3c4c(sc3ncn12)CCCC4 | > 4 mM (inactive)
7 | Nc1nc2ccc(S(N)(=O)=O)cc2s1 | > 4 mM (inactive)
8 | CC1(C(=O)O)CC2C=CC1C2 (stereo not drawn) | > 4 mM (inactive)
9 | c1ccc(SCc2nc(-c3ccncc3)no2)cc1 | 0.314 mM and 0.167 mM
10 | O=C(c1ccncc1)c1ccc(Br)cc1 | > 4 mM (inactive)
11 | CC(CO)NC(=O)C1C=C2c3cccc4[nH]cc(c34)C[C@H]2N(C)C1 (stereo partly drawn) | > 4 mM (inactive)
12 | OCCCc1nc2ccc(C(F)(F)F)cc2[nH]1 | > 4 mM (inactive)
13 | Cc1noc(-c2ccccc2)c1C(=O)O | > 4 mM (inactive)
14 | O=NN1C(=O)c2ccccc2C1=O | > 4 mM (inactive)
15 | COc1ccccc1NC(=O)c1cc[n+]([O-])cc1 | > 4 mM (inactive)
16 | Cn1nc(C(=O)Nc2cccnc2)cc1Cl | > 4 mM (inactive)
17 | COc1ccc(N2C(=N)C(C)(C)NC2=O)cc1 | > 4 mM (inactive)
18 | Cc1ccc(=O)[nH]c1 | > 4 mM (inactive)
19 | CS(=O)(=O)CCCCN=C=S | > 4 mM (inactive)
20 | Cc1nc(-c2ccccc2)ncc1CO | > 4 mM (inactive)
21 | CC(=O)O[C@@H]1CC2C(C)(C)[C@H](O)C=C[C@]2(C)C2CC[C@]3(C)C(=CC(=O)O[C@H]3c3ccoc3)[C@@]21C (stereo partly drawn) | > 4 mM (inactive)
22 | O=C(Nc1ccc(N2CCOCC2)cc1)c1cnsn1 | > 4 mM (inactive)
23 | Cc1scc(C(=O)Nn2cnnc2)c1-c1ccccc1 | > 4 mM (inactive)
24 | NC1CS(=O)(=O)CC1O (stereo not drawn) | > 4 mM (inactive)

Row | Structure (SMILES) | Kd
25 | Cn1ccnc1SCc1cc(=O)[nH]c2ccccc12 | > 4 mM (inactive)
26 | Cc1ccc(C(=O)Nn2cnnc2)s1 | > 4 mM (inactive)
27 | O=c1cc(-c2ccc(O)cc2)oc2cc(O[C@@H]3O[C@H](CO)[C@@H](O)[C@H](O)[C@H]3O[C@@H]3OC[C@](O)(CO)[C@H]3O)cc(O)c12 | > 4 mM (inactive)
28 | COc1ccc2c(c1)OC/C(=C\c1ccc(OC)c(O)c1)C2=O | > 4 mM (inactive)
29 | CC(=O)Nc1ccc(C(=O)n2nc(C)cc2C)cc1 | > 4 mM (inactive)
30 | Cc1cccnc1NC1=NCC(C)S1 (stereo not drawn) | > 4 mM (inactive)
31 | O=C(Nc1ccncc1)Nc1ccc(F)cc1F | > 4 mM (inactive)
32 | O=C(c1ccc(N2CCNCC2)cc1)c1cccnc1 | > 4 mM (inactive)
33 | C[C@@H]1CC[C@@]2(OC1)OC1C(O)C3C4CC[C@H]5C[C@H](O[C@@H]6O[C@H](CO)[C@H](O[C@@H]7O[C@H](CO)[C@@H](O)[C@H](O[C@@H]8OC[C@@H](O)[C@H](O)[C@H]8O)[C@H]7O[C@@H]7O[C@H](CO)[C@H](O)[C@H](O[C@@H]8O[C@H](CO)[C@@H](O)[C@H](O)[C@H]8O)[C@H]7O)[C@H](O)[C@H]6O)[C@H](O)C[C@]5(C)C4CC[C@]3(C)C1[C@@H]2C (stereo partly drawn) | > 4 mM (inactive)
34 | Cc1n[nH]c(C)c1CC(=O)O | > 4 mM (inactive)
35 | O=C(CO)N/N=C/c1ccccc1F | > 4 mM (inactive)
36 | CS(=O)(=O)Nc1nnc(Cc2ccccc2)s1 | > 4 mM (inactive)
37 | CCSc1nc2ccccc2[nH]1 | > 4 mM (inactive)
38 | Cc1ccc(N2C(=O)C3C4C=CC(O4)C3C2=O)cc1 (stereo not drawn) | > 4 mM (inactive)
39 | CN(C)C(=O)Oc1ccc(-c2nnco2)cc1 | > 4 mM (inactive)
40 | Cn1c(=O)cc(O)c2ccccc21 | > 4 mM (inactive)
41 | COc1ccc(Cl)cc1-c1nc(-c2ccncc2)no1 | > 4 mM (inactive)
42 | CC(O)C(=O)N/N=C/c1cccs1 (stereo not drawn) | > 4 mM (inactive)
43 | O=C(O)C1CSC(c2ccc(Cl)cc2)N1 (stereo not drawn) | > 4 mM (inactive)
44 | COC(=O)c1cccc(Cn2nnc3ccccc3c2=O)c1 | > 4 mM (inactive)
45 | O=C(Nc1ccc(Cl)cn1)c1cnn2cccnc12 | > 4 mM (inactive)
46 | Cc1cc(NC(=O)CS(=O)(=O)c2ccccc2)no1 | > 4 mM (inactive)
47 | Cn1c(O)c(/C=C2\C=CC=N2)c(=O)[nH]c1=O | > 4 mM (inactive)
48 | CNC(=S)NCCN1CCOCC1 | > 4 mM (inactive)

Row | Structure (SMILES) | Kd
49 | Cc1cc(C(=O)N2CCOCC2)c(C)o1 | > 4 mM (inactive)
50 | O=C(O)CCn1c(=O)oc2ccccc21 | > 4 mM (inactive)
51 | Nc1ccc(OCc2ccccc2)cc1 | > 4 mM (inactive)
52 | O=C(O)C1CC2CC1CCC2O (stereo not drawn) | > 4 mM (inactive)
53 | Cc1sc(CCc2nc(-c3ccccc3)c(C)s2)nc1-c1ccccc1 | inactive
54 | CSc1nsc(SCc2cnc(C)nc2N)n1 | > 4 mM (inactive)
55 | COc1c2occc2cc2ccc(=O)oc12 | > 4 mM (inactive)
56 | CCn1ncc(Cl)c1C(=O)Nc1ccncc1 | > 4 mM (inactive)
57 | CN1CCC2(CC1)CC1CC3C=CC1(CN2)O3 (stereo not drawn) | > 4 mM (inactive)
58 | O=C(O)C1(S(=O)(=O)c2ccccc2)CC1 | > 4 mM (inactive)
59 | O=C(NCc1cccs1)c1nn2cccnc2c1Cl | > 4 mM (inactive)
60 | N#Cc1nc(N2CCCCC2)nc(N2CCOCC2)n1 | > 4 mM (inactive)
61 | OC12CC3CC(C1)C1(NCCS1)C(C3)C2 (stereo not drawn) | > 4 mM (inactive)
62 | O=c1c2c(nc3nc(Cc4ccccc4)[nH]n13)CCC2 | > 4 mM (inactive)
63 | CC(C)Oc1ccc(C2CC(=O)NNC2=O)cc1 (stereo not drawn) | > 4 mM (inactive)
64 | CC(=O)Nc1nc(C)nc(-c2ccccc2)c1C(C)=O | > 4 mM (inactive)
65 | Cc1cc(C)n(CC(=O)O)n1 | > 4 mM (inactive)
66 | Nc1ccc(Cc2ccncc2)cc1 | > 4 mM (inactive)
67 | Cc1onc(-c2ccccc2)c1CO | > 4 mM (inactive)
68 | Nc1ccccc1N1CCOCC1 | > 4 mM (inactive)
69 | O=C(O)c1ccccc1C(=O)Nc1ccccc1 | > 4 mM (inactive)
70 | Cc1n[nH]c(=S)n(/N=C/c2ccccc2)c1=O | > 4 mM (inactive)
71 | Cc1ccc(-c2nc(N)n(C(=O)c3cccnc3)n2)cc1 | > 4 mM (inactive)
72 | Cc1[nH]c2ccccc2c(=O)c1CO | > 4 mM (inactive)

Row | Structure (SMILES) | Kd
73 | CC(=O)c1cccc(NC(=O)C=C(C)C)c1 | > 4 mM (inactive)
74 | Nc1ncnc(NCCOCCO)c1[N+](=O)[O-] | > 4 mM (inactive)
75 | O=C(NCc1ccccc1Cl)c1cnn2cccnc12 | > 4 mM (inactive)
76 | C[C@H]1[C@H](C)CC[C@]2(CO)CC[C@]3(C)C(=CCC4[C@@]5(C)CC[C@H](O)C(C)(C)C5CC[C@]43C)[C@H]12 (stereo partly drawn) | > 4 mM (inactive)
77 | O=C(/C=C/C=C/c1ccc2c(c1)OCO2)N1CCCCC1 | > 4 mM (inactive)
78 | Cn1ncc(C(=O)NC2CCCCC2)c1Cl | > 4 mM (inactive)
79 | Oc1cc(O)c2c(c1)O[C@H](c1ccc(O)c(O)c1)[C@H](O)C2 | > 4 mM (inactive)
80 | CCC(C)C(NC)C(=O)O (stereo not drawn) | > 4 mM (inactive)
81 | Cc1cc(C(=O)NCc2ccccc2Br)no1 | > 4 mM (inactive)
82 | O=c1[nH]c(N2CCOCC2)nc2ccccc12 | > 4 mM (inactive)
83 | CSc1ccn(CCC(=O)O)c(=O)n1 | > 4 mM (inactive)
84 | S=C(Nc1ccc2nccnc2c1)N1CCOCC1 | > 4 mM (inactive)
85 | CC(=O)O[C@@H]1CC2C(C)(C)[C@@H](O)CC[C@]2(C)C2CC[C@@]3(C)[C@H](c4ccoc4)OC(=O)[C@H]4O[C@]43[C@@]21C (stereo partly drawn) | > 4 mM (inactive)
86 | COc1c(F)c(F)c(-c2csc(N)n2)c(F)c1F | > 4 mM (inactive)
87 | O=c1c(O)c(-c2ccccc2)oc2ccc3occc3c12 | > 4 mM (inactive)
88 | COC(=O)c1ccc(Cl)c(NC(C)=O)c1 | > 4 mM (inactive)
89 | Cc1cccc(C(C)C)c1NC(=O)c1cccnc1 | > 4 mM (inactive)
90 | O=C(c1cc2ccccc2o1)N1CCOCC1 | inactive
91 | c1ccc(CCc2nc(-c3cccnc3)no2)cc1 | > 4 mM (inactive)
92 | Cc1nn2c(nc1=O)SCC(c1ccccc1)=N2 | > 4 mM (inactive)
93 | Cc1cc(C(=O)Nc2sc(C)c(C)c2C#N)no1 | > 4 mM (inactive)
94 | CCC(CO)NC(=O)c1snnc1C (stereo not drawn) | > 4 mM (inactive)
95 | Cc1cc(=O)[nH]c2ccccc12 | > 4 mM (inactive)
96 | CN1C(=O)c2ccc(C(=O)NC3CCCCC3)cc2C1=O | > 4 mM (inactive)

Row | Structure (SMILES) | Kd
97 | COc1cc2c(cc1OC)C1=C(C#N)CCC(=O)N1CC2 | > 4 mM (inactive)
98 | O=C(Cc1c(F)cccc1Cl)Nc1cccnc1 | > 4 mM (inactive)
99 | NC(=O)C1CCN(c2ncnc(N)c2[N+](=O)[O-])CC1 | > 4 mM (inactive)
100 | Cc1cc(NS(=O)(=O)Cc2ccccc2)no1 | > 4 mM (inactive)
101 | Cn1c(=O)c2cn3ncccc3c2n(C)c1=O | > 4 mM (inactive)
102 | CC(=O)NC1C(=O)Nc2c(C)cc(C)cc21 (stereo not drawn) | > 4 mM (inactive)
103 | Cc1nc2ccccc2c(=O)n1CCCn1ccnc1 | > 4 mM (inactive)
104 | NC(=O)c1ccsc1NC(=O)c1ccccc1[N+](=O)[O-] | > 4 mM (inactive)
105 | Fc1ccc2onc(C3CCNCC3)c2c1 | > 4 mM (inactive)
106 | O=C(Nc1ccncc1)c1cncc(Br)c1 | > 4 mM (inactive)
107 | O=C(NC1CSCC1O)c1ccccc1 (stereo not drawn) | > 4 mM (inactive)
108 | Cc1nc(-c2ccccc2)sc1CO | > 4 mM (inactive)
109 | O=c1[nH]c(=O)c2[nH]cnc2[nH]1 | > 4 mM (inactive)
110 | CCOC(=O)c1c(C)cc(OC)cc1O | > 4 mM (inactive)
111 | CC(C)c1c(O)ccc2c1CCC1C(C)(C)CCC[C@]21C (stereo partly drawn) | > 4 mM (inactive)
112 | O=C1NC(=O)C2C3C=CC(O3)C12 (stereo not drawn) | > 4 mM (inactive)
113 | CCc1ccc(/C=N/n2cnnc2)cc1 | > 4 mM (inactive)
114 | CC(C)c1c(O)ccc2c1CCC1[C@@](C)(CO)CCC[C@]21C (stereo partly drawn) | > 4 mM (inactive)
115 | NC(=O)C1CCN(C(=S)c2ccccc2)CC1 | > 4 mM (inactive)
116 | O=c1c2ccccc2ncn1C1CCCCC1 | > 4 mM (inactive)
117 | Clc1cccc(Cl)c1Cn1c(-c2cscn2)nc2ccccc21 | inactive
118 | O=C(O)CC1C(=O)NCCN1Cc1cccs1 (stereo not drawn) | > 4 mM (inactive)
